Measurements taken from article PMC12951568, “Identifying Structural Factors Governing the Photodynamic Activity of Phthalocyanines” (Journal of Medicinal Chemistry, 2026).
Several values for one entry are separate records, joined by “and”; a condition that tells them apart may be missing. Identical values can stand only once. Like-named read-outs stand apart in the source and are kept apart here.

Key:
[1] = test system: MCF-7 (human breast adenocarcinoma); parameters: method as in number not printed in Table 2; conditions: 12 h incubation, Xe-lamp 15 min, λ > 570 nm, 11.2 J/cm^2; mean ± SD; determined previously under the same conditions at the same workplace and published; ref number not given; cited from earlier work
[2] = test system: SK-MEL-28 (human skin melanoma); test: Photodynamic activity (phototoxicity, neutral red uptake) on SK-MEL-28; format: cell-based; conditions: 12 h incubation, Xe-lamp 15 min, λ > 570 nm, 11.2 J/cm^2, mean ± SD, t.w. = this work
[3] = Log P, partition between n-octanol and PBS; format: physicochemical; conditions: partition coefficient between 1-octanol and PBS
Outline: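 Sample from 100 μM stock added to equal volumes of n-octanol and PBS, vortexed 5 min at rt, centrifuged. Each layer diluted into DMF and emission spectra recorded; log P taken as log of octanol/PBS integrated fluorescence ratio, mean of triplicates.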

[4] = Absorption and fluorescence emission spectra in DMF; format: physicochemical; conditions: in DMF
Protocol: (§1) An absorption spectrum of 2.475 mL of solvent (water, DMF, or PBS) was taken (i.e., absorption spectrum of baseline); then, 25 μL of stock solution was added to reach the final concentration of 1 μM in the cuvette, and the absorption and emission spectra were taken. Baseline of the solvent was subtracted from the obtained absorption spectrum to get the final absorption spectrum of the sample.

[5] = Quantum yield of singlet oxygen production, comparative method with DPBF scavenger; format: physicochemical; conditions: in DMF, ZnPc as reference
Outline: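 Dye added from 100 μM DMF stock (or DMF/water, water); irradiated under stirring with xenon lamp through water filter and OG530 cut-off (>523 nm). DPBF decay followed at 415 nm; ΦΔ from ln(A0/At) slopes versus reference, normalised to absorbed light summed over 523–850 nm; triplicate means, ±10% error.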

[6] = test system: HeLa (human cervical carcinoma); conditions: 12 h incubation, Xe-lamp 15 min, λ > 570 nm, 11.2 J/cm^2; mean ± SD; determined previously under the same conditions at the same workplace and published; ref number not given; read-out: EC50 (nM) HeLa; cited from earlier work
[7] = Fluorescence quantum yield, comparative method; format: physicochemical; conditions: in DMF; ZnPc as reference
Outline: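 ΦF determined by the comparative method against ZnPc (ΦF 0.32 in THF), using integrated emission area, absorbance at the excitation wavelength and solvent refractive index. Q-band absorbance kept below 0.05; estimated error ± 15%.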

[8] = Aggregation / monomerization in aqueous media (spectra in water and PBS); format: physicochemical; conditions: 1 μM
Protocol: as §1

[9] = biological target: bovine serum albumin (BSA) (Bos taurus, UniProt P02769); test: Interaction with bovine serum albumin (absorption and emission spectra in PBS); format: binding; conditions: 1 μM Pc in PBS, BSA 17.5, 35 and 100 μM
Chain of bovine serum albumin (BSA) (P02769 25-607): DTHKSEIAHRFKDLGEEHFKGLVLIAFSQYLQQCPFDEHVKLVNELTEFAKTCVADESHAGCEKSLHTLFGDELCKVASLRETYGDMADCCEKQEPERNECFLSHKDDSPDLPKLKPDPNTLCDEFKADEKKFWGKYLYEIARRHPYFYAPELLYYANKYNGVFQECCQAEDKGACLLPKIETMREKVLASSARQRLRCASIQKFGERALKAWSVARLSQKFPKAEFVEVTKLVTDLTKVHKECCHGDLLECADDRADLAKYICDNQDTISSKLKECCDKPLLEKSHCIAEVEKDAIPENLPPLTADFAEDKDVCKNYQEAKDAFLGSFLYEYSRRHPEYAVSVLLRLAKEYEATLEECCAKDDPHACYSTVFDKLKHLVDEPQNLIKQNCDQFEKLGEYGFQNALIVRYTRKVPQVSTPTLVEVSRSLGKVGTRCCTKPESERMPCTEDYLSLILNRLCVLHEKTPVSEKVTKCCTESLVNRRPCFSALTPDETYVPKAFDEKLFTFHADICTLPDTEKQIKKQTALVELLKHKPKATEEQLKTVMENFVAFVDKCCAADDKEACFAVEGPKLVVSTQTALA

[10] = test system: HeLa (human cervical carcinoma); test: Photodynamic activity (phototoxicity, neutral red uptake) on HeLa; format: cell-based; conditions: for EC50: 12 h incubation, Xe-lamp 15 min, λ > 570 nm, 11.2 J/cm^2, mean ± SD, t.w. = this work
Protocol: Detailed in vitro studies involving subcellular localization and determination of the EC50 in three different cell lines (human cervical carcinoma–HeLa, human breast adenocarcinoma–MCF-7, and human skin melanoma–SK-MEL-28) were performed. A broadband light source (ozone-free 450 W Xe-lamp, Newport) equipped with the long-pass filter Schott OG570 was used (12.4 mW/cm^2, 15 min, 11.2 J/cm^2).
For the cytotoxicity experiments (phototoxicity), cells were seeded at 100 μL per well into 96-well plates (TPP, Switzerland) at a density of 7.5 × 10^3 (HeLa) or 1.0 × 10^4 (MCF-7 and SK-MEL-28) cells per well. Cells were left to grow for 24 h (until they reached confluency) in a controlled environment of a CO2 incubator (37 °C, 5% CO2 atmosphere, constant high humidity). Subsequently, studied compounds were added in a wide concentration range and incubated with the cells for 12 h. Cells were washed; fresh cell culture medium was added, and the cells were irradiated using a 450 W Xe lamp (Newport, USA). The lamp was equipped with a long pass filter (Newport OG570) and an 8 cm water filter (λ > 570 nm, 12.4 mW/cm^2, 15 min, 11.2 J/cm^2). Cellular viability was assessed after an additional 24 h by the neutral red (NR; Sigma, Merck, USA) uptake assay. At least three independent experiments, each in triplicate, were performed. The soluble NR was measured at λ = 540 nm using a Tecan Infinite 200 M plate reader (Tecan, Austria). The viability of each experimental group was expressed as the percentage of the untreated cells (100% viability) after subtraction of the signal from cells treated with a lethal dose of hydrogen peroxide (0% viability). […] EC50 values were calculated, and graphs were created by using GraphPad Prism 10.3.1 (Graph Pad software, USA).

[11] = Fluorescence lifetime in DMF; format: physicochemical
From the text: 1 Photophysical Data of Investigated Derivatives in DMF ^a | column: τF1/ns; τF2/ns

[12] = cited from earlier work; for ΦΔ, quantum yield of singlet oxygen production of nonionized analogue: determined for nonionized analogues containing free carboxylic acid, ref number not given (footnote b); for ΦΔ(EtOH): in EtOH
[13] = cited from earlier work; for ΦF, fluorescence quantum yield of nonionized analogue: determined for nonionized analogues containing free carboxylic acid, ref number not given (footnote b)
[14] = test system: MCF-7 (human breast adenocarcinoma); test: Photodynamic activity (phototoxicity, neutral red uptake) on MCF-7; format: cell-based; conditions: 12 h incubation, Xe-lamp 15 min, λ > 570 nm, 11.2 J/cm^2, mean ± SD, t.w. = this work

Row | Compound | EC50 [1] [nM] | EC50 [2] [nM] | Log P [3] | ε, extinction coefficient [4] | λA, absorption maximum in the Q-band [4] [nm] | λF, fluorescence emission maximum [4] [nm] | ΦΔ, quantum yield of singlet oxygen production [5] | EC50 [6] [nM] | ΦF, fluorescence quantum yield [7] | aggregation / monomeric state [8] | τF1, fluorescence lifetime (relative amplitude in brackets) [11] | EC50 [14] [nM] | ΦΔ(EtOH) ([12]; ref number not given) | also measured
1 | O=C([O-])c1cc(C(=O)[O-])cc(-c2cc3c(cc2-c2cc(C(=O)[O-])cc(C(=O)[O-])c2)C2=Nc4c5ccccc5c5[n]4[Zn][n]4c(c6ccccc6c4=NC3=N2)=NC2=NC(=N5)c3ccccc32)c1.[Na+].[Na+].[Na+].[Na+] [A2Zn] | 584 ± 88 | 700 ± 50 | –2.42 | 152 090 M^–1cm^–1 | 677 | 688 | 0.22 | 410 ± 156 | 0.02 | aggregated in water | 0.23 (16%) ns | – | – | Interaction with BSA: disaggregation/monomerization and changes in absorption and fluorescence emission spectra [9]: partial; fold higher photodynamic activity vs symmetrical hydrophilic counterparts ([10]; HeLa, unsymmetrical anionic A1Zn, A2Zn vs A3Zn, A4Zn): 25 and ~21; τF2, fluorescence lifetime (relative amplitude in brackets) [11]: 2.66 (84%) ns
2 | O=C(O)c1cc(Oc2cc3c(cc2Oc2cc(C(=O)O)cc(C(=O)O)c2)C2=Nc4c5cc(Oc6cc(C(=O)O)cc(C(=O)O)c6)c(Oc6cc(C(=O)O)cc(C(=O)O)c6)cc5c5[n]4[Zn][n]4c(c6cc(Oc7cc(C(=O)O)cc(C(=O)O)c7)c(Oc7cc(C(=O)O)cc(C(=O)O)c7)cc6c4=NC4=NC(=N5)c5cc(Oc6cc(C(=O)O)cc(C(=O)O)c6)c(Oc6cc(C(=O)O)cc(C(=O)O)c6)cc54)=NC3=N2)cc(C(=O)O)c1 [A3Zn(COOH)] | – | – | – | – | – | – | – | – | – | – | – | – | – | ΦΔ, quantum yield of singlet oxygen production of nonionized analogue [12]: 0.42; ΦF, fluorescence quantum yield of nonionized analogue [13]: 0.19
3 | O=C(O)c1cc(C(=O)O)cc(-c2cc3c(cc2-c2cc(C(=O)O)cc(C(=O)O)c2)C2=Nc4c5cc(-c6cc(C(=O)O)cc(C(=O)O)c6)c(-c6cc(C(=O)O)cc(C(=O)O)c6)cc5c5[n]4[Zn][n]4c(c6cc(-c7cc(C(=O)O)cc(C(=O)O)c7)c(-c7cc(C(=O)O)cc(C(=O)O)c7)cc6c4=NC4=NC(=N5)c5cc(-c6cc(C(=O)O)cc(C(=O)O)c6)c(-c6cc(C(=O)O)cc(C(=O)O)c6)cc54)=NC3=N2)c1 [A4Zn(COOH)] | – | – | – | – | – | – | – | – | – | – | – | – | – | ΦΔ, quantum yield of singlet oxygen production of nonionized analogue [12]: 0.45; ΦF, fluorescence quantum yield of nonionized analogue [13]: 0.12
4 | Cc1cc(Cn2cc[n+](C)c2)c(Oc2c3c(c(C)c(C)[n+]2C)C2=NC3=Nc3c4ccccc4c4[n]3[Zn][n]3c(c5ccccc5c3=N2)=NC2=NC(=N4)c3ccccc32)c(Cn2cc[n+](C)c2)c1.[I-].[I-].[I-] [C1Zn] | 35 ± 2 | 22 ± 3 | 0.53 | 100 240 M^–1cm^–1 | 689 | 696 | 0.66 | 27 ± 9 | 0.15 | monomeric in DMF but are aggregated in PBS | – | – | – | –
5 | Cc1cc(Cn2cc[n+](C)c2)c(Oc2cc3c(cc2Oc2c(Cn4cc[n+](C)c4)cc(C)cc2Cn2cc[n+](C)c2)C2=Nc4c5ccccc5c5[n]4[Zn][n]4c(c6ccccc6c4=NC3=N2)=NC2=NC(=N5)c3ccccc32)c(Cn2cc[n+](C)c2)c1.[I-].[I-].[I-].[I-] [C3Zn] | 21 ± 8 | 40 ± 4 | –0.84 | 177 190 M^–1cm^–1 | 673 | 682 | 0.53 | 48 ± 19 | 0.19 | monomeric in DMF but are aggregated in PBS | – | – | – | –
6 | C[n+]1cccc(Oc2cc3c(cc2Oc2ccc[n+](C)c2)C2=Nc4c5cc(Oc6ccc[n+](C)c6)c(Oc6ccc[n+](C)c6)cc5c5[n]4[Zn][n]4c(c6cc(Oc7ccc[n+](C)c7)c(Oc7ccc[n+](C)c7)cc6c4=NC4=NC(=N5)c5cc(Oc6ccc[n+](C)c6)c(Oc6ccc[n+](C)c6)cc54)=NC3=N2)c1.[I-].[I-].[I-].[I-].[I-].[I-].[I-].[I-] [C6Zn] | – | 150 ± 50 | –2.59 | 41 730 M^–1cm^–1 | 681 | 683 | 0.02 | – | 0.001 | did not sufficiently suppress aggregation | 0.07 (3%) ns | 110 ± 30 | – | EC50 [10]: 58 ± 20 nM; τF2, fluorescence lifetime (relative amplitude in brackets) [11]: 2.84 (97%) ns
7 | [Zn+2].c1ccc2c(c1)-c1nc-2nc2[n-]c(nc3nc([n-]c4nc(n1)-c1ccccc1-4)-c1ccccc1-3)c1ccccc21 [ZnPc, unsubstituted zinc(II) phthalocyanine, reference compound] | – | – | – | – | – | – | – | – | – | – | – | – | – | ΦΔ of the reference standard ([12]; in DMF, ref number not given): 0.56; ΦF of the reference standard ([13]; in THF, ref number not given): 0.32
8 | C=Cc1c(C)c2cc3nc(cc4[nH]c(cc5nc(cc1[nH]2)C(C)=C5CCC(=O)O)c(CCC(=O)OC)c4C)[C@@]1(C)C3=CC=C(C(=O)OC)[C@H]1C(=O)OC [verteporfin, reference compound] | – | – | – | – | 690 | 696 | – | 36 ± 10 | 0.18 | – | 6.05 ns | – | 0.51–0.67 | EC50 ([2]; Homo sapiens, SK-MEL-28, light or radiation study): 21 ± 3 nM; logP ([3]; n-octanol/PBS buffer): 2.51; EC50 ([14]; Homo sapiens, MCF7, light or radiation study): 33 ± 3 nM
9 | protoporhyrin IX [PpIX, reference compound] | – | 6200 ± 300 | 1.06 | – | 630 | 634 | – | – | 0.12 | – | – | 5700 ± 800 | 0.51–0.67 | EC50 [10]: 5500 ± 600 nM
10 | temoporfin [reference compound] | – | 103 ± 17 | 1.40 | – | 651 | 656 | – | 45 ± 7 | 0.24 | – | 9.66 ns | 210 ± 74 | 0.51–0.67 | –
